The results in this text go back to paper PMC6152134, “Synthesis and In Vitro Anticancer Activity of Novel Dehydroabietic Acid-Based Acylhydrazones” (Molecules : A Journal of Synthetic Chemistry and Natural …, 2017).

Molecules are shown by their SMILES.

The subject of data set [1] is BEL-7402 (liver) human carcinoma cell line. Description: MTT cytotoxicity assay, BEL-7402 cells. Conditions: 48 h exposure. The format is cell-based. The method, then:
(§1) Compounds 4a–x were evaluated for their cytotoxic activity in vitro against the human cancer cell lines, CNE-2, HepG2, HeLa, and BEL-7402 by using a 3-(4,5-dimethylthiazol-2-yl)-2,5-diphenyl tetrazolium bromide (MTT) colorimetric assay. Cisplatin was included in the experiments as a positive control, and the IC50 of DHA is also presented to compare the anticancer activities. The calculated IC50 values were reported differently according to the different cancer cells.
(§2) The CNE-2, HepG2, HeLa, and BEL-7402 cell lines used in this work were all purchased from the Institute of Biochemistry and Cell Biology, China Academy of Sciences. All were supplemented with 10% heat-inactivated fetal bovine serum in a humidified atmosphere of 5% CO2/95% air at 37 °C. In order to investigate the potential of compounds 4, cisplatin, a commercial classical anticancer drug was used as a reference drug. CNE-2, HepG2, HeLa, and BEL-7402 cells were seeded into 96-well microculture plates and allowed to adhere for 24 h, respectively. After cells were exposed to compounds at concentrations from 100 to 0.1 μM for 48 h, medium was aspirated and replenished with complete medium. IC50 values was evaluated by MTT tetrazolium dye assay. All the tests were repeated in at least three independent experiments. The IC50 values of the compounds were calculated using SPSS Version 10 software (IBM, New York, NY, USA), which defined the IC50 value as the concentration required to inhibit cell growth by 50%.
Background: Tetrazolium assays rely on reduction of a dye to a coloured formazan, in cell work by metabolically active cells.

Data set [2] relates to CNE-2 (nasopharynx) human carcinoma cell line. Description: MTT cytotoxicity assay, CNE-2 cells. As to conditions: 48 h exposure. The format is cell-based. Here is the method: as §1, §2
Data set [3] concerns HepG2 (liver) human carcinoma cell line. Description: MTT cytotoxicity assay, HepG2 cells. The format is cell-based. As to conditions: 48 h exposure. Here is the method:
as §1, §2

The test system of data set [4] is HeLa (epithelial cervical) human carcinoma cell line. Description: MTT cytotoxicity assay, HeLa cells. The format is cell-based. Conditions: 48 h exposure. Here is the method: as §1, §2
The subject of data set [5] is HL-7702 normal human liver cell line. Description: MTT cytotoxicity assay, HL-7702 normal liver cells. The format is cell-based.
Setting [6] is: L02, normal human liver cell HL-7702.

For orientation: IC50 means the midpoint of a concentration-inhibition curve. Read a high IC50 as weaker potency. The term melting point denotes the temperature of the solid-liquid transition. As to `CC(C)c1ccc2c(c1)CCC1C(C)(C(=O)OCC(=O)NN=Cc3ccc(Br)cc3)CCCC21C` (stereo not shown) [4m], the melting point lay in the range of 188.1 to 188.6 °C. In addition, in data set [1] (Homo sapiens), the IC50 worked out at 23.1 ± 0.33 µM. The compound also returned a concentration for half-maximal inhibition (IC50) in data set [2] (Homo sapiens) of 89.66 ± 0.27 µM. In data set [3] (Homo sapiens, HepG2, 48 h), this compound came in with an IC50 of 9.94 ± 0.59 µM. Also, the IC50 in data set [4] (Homo sapiens, HeLa, 48 h) was 12.8 ± 0.15 µM. Also, the IC50 in data set [5] (setting [6]) is more than 100 µM.

`COc1ccccc1C=NNC(=O)COC(=O)C1(C)CCCC2(C)c3ccc(C(C)C)cc3CCC12` (stereo not shown) [4n] showed a melting point of 190.3 to 191.8 °C. The IC50 in data set [1] (Homo sapiens) came to 23.8 ± 0.51 µM. The compound further returned an IC50 in data set [2] (Homo sapiens) of 26.08 ± 0.05 µM. In data set [3] (Homo sapiens, HepG2, 48 h), this compound displayed an IC50 of 50.1 ± 0.74 µM. Further, the IC50 in data set [4] (Homo sapiens, HeLa, 48 h) was 45.13 ± 0.09 µM. The compound also had an IC50 in data set [5] (setting [6]) of 70.4 ± 2.23 µM.

With `COc1cccc(C=NNC(=O)COC(=O)C2(C)CCCC3(C)c4ccc(C(C)C)cc4CCC23)c1` (stereo not shown) [4o], the melting point was 136.7 to 137.9 °C. Besides, the half-maximal inhibitory concentration (IC50) in data set [1] (Homo sapiens) stood at 14.8 ± 0.38 µM. In data set [2] (Homo sapiens), this compound gave an IC50 of 86.46 ± 0.13 µM. Further, the IC50 in data set [3] (Homo sapiens, HepG2, 48 h) stood at 51.3 ± 0.63 µM. The IC50 in data set [4] (Homo sapiens, HeLa, 48 h) was determined as 32.06 ± 0.21 µM. For the same compound, the concentration for half-maximal inhibition (IC50) in data set [5] (setting [6]) was more than 100 µM.

Compound `COc1ccc(C=NNC(=O)COC(=O)C2(C)CCCC3(C)c4ccc(C(C)C)cc4CCC23)cc1` (stereo not shown) [4p, N’-(4-Methoxybenzylidene)-2-(dehydroabietyloxy)acetohydrazide] had a melting point of 174.8 to 175.5 °C. The same compound had an IC50 in data set [1] (Homo sapiens) of 55.29 ± 0.44 µM. The compound also yielded a half-maximal inhibitory concentration (IC50) in data set [2] (Homo sapiens) of 56.98 ± 0.08 µM. The same compound displayed an IC50 in data set [3] (Homo sapiens, HepG2, 48 h) of 48.59 ± 0.09 µM. The same compound registered an IC50 in data set [4] (Homo sapiens, HeLa, 48 h) of 34.33 ± 0.32 µM. For the same compound, in data set [5] (setting [6]), 91.8 ± 1.57 µM corresponded to half-maximal inhibition (IC50).

For `CC(C)c1ccc2c(c1)CCC1C(C)(C(=O)OCC(=O)NN=Cc3ccccc3F)CCCC21C` (stereo not shown) [4q, Dehydroabietic acid-based 2-fluorophenyl acylhydrazone], the melting point lay in the range of 130.2 to 130.5 °C. Further, the IC50 in data set [1] (Homo sapiens) is 22.8 ± 0.34 µM. The same compound came in with an IC50 in data set [2] (Homo sapiens) of 27.4 ± 0.72 µM. Also, in data set [3] (Homo sapiens, HepG2, 48 h), inhibition was half-maximal at 93.76 ± 0.39 µM (IC50). Also, the IC50 in data set [4] (Homo sapiens, HeLa, 48 h) was determined as 27.71 ± 0.14 µM. Also, the IC50 in data set [5] (setting [6]) was more than 100 µM.

`CC(C)c1ccc2c(c1)CCC1C(C)(C(=O)OCC(=O)NN=Cc3cccc(F)c3)CCCC21C` (stereo not shown) [4r]: the melting point was 166 to 167.3 °C. In addition, in data set [1] (Homo sapiens), the concentration for half-maximal inhibition (IC50) amounted to 25.9 ± 0.53 µM. Also, in data set [2] (Homo sapiens), the midpoint of inhibition, the IC50, lay at 51 ± 0.94 µM. Also, in data set [3] (Homo sapiens, HepG2, 48 h), the midpoint of inhibition, the IC50, lay at 31.6 ± 0.47 µM. Also, in data set [4] (Homo sapiens, HeLa, 48 h), the IC50 came to 12.8 ± 0.13 µM. In data set [5] (setting [6]), this compound showed a concentration for half-maximal inhibition (IC50) of 68.6 ± 1.25 µM.

Compound `CC(C)c1ccc2c(c1)CCC1C(C)(C(=O)OCC(=O)NN=Cc3ccc(F)cc3)CCCC21C` (stereo not shown) [4s] registered a melting point of 169.2 to 170.5 °C. It took 25.22 ± 0.22 µM to reach half-maximal inhibition in data set [1] (Homo sapiens) (IC50). In data set [2] (Homo sapiens), this compound showed an IC50 of 49.81 ± 0.49 µM. The compound further registered a half-maximal inhibitory concentration (IC50) in data set [3] (Homo sapiens, HepG2, 48 h) of 90.08 ± 0.33 µM. Half-maximal inhibition in data set [4] (Homo sapiens, HeLa, 48 h) (IC50) required 28.79 ± 0.24 µM. The compound also registered an IC50 in data set [5] (setting [6]) of more than 100 µM.

The compound `CC(C)c1ccc2c(c1)CCC1C(C)(C(=O)OCC(=O)NN=Cc3cccc(F)c3F)CCCC21C` (stereo not shown) [4t] came in with a melting point of 150.2 to 153.5 °C. This compound displayed a half-maximal inhibitory concentration (IC50) in data set [1] (Homo sapiens) of 18.8 ± 0.59 µM. In addition, the IC50 in data set [2] (Homo sapiens) came to 33.3 ± 0.56 µM. In data set [3] (Homo sapiens, HepG2, 48 h), this compound had a concentration for half-maximal inhibition (IC50) of 22.89 ± 0.04 µM. The IC50 in data set [4] (Homo sapiens, HeLa, 48 h) worked out at 11.1 ± 0.15 µM. The same compound gave a half-inhibitory concentration (IC50) in data set [5] (setting [6]) of 72 ± 1.66 µM.

`CC(C)c1ccc2c(c1)CCC1C(C)(C(=O)OCC(=O)NN=Cc3ccc(F)cc3F)CCCC21C` (stereo not shown) [4u, N’-(2,4-Difluorobenzylidene)-2-(dehydroabietyloxy)acetohydrazide] returned a melting point of 181.9 to 184.5 °C. Also, the IC50 in data set [1] (Homo sapiens) came to 18.6 ± 0.37 µM. Half-maximal inhibition in data set [2] (Homo sapiens) (IC50) required 32.83 ± 0.16 µM. In data set [3] (Homo sapiens, HepG2, 48 h), this compound showed an IC50 of 25.4 ± 0.54 µM. The same compound had a concentration for half-maximal inhibition (IC50) in data set [4] (Homo sapiens, HeLa, 48 h) of 5.86 ± 0.09 µM. Further, the IC50 in data set [5] (setting [6]) came to 55.8 ± 1.38 µM.

Take `CC(C)c1ccc2c(c1)CCC1C(C)(C(=O)OCC(=O)NN=Cc3c(F)cccc3F)CCCC21C` (stereo not shown) [4v]: the melting point lay within 107.3 to 110 °C. Moreover, the IC50 in data set [1] (Homo sapiens) is 20.5 ± 0.53 µM. In data set [2] (Homo sapiens), this compound yielded a half-maximal inhibitory concentration (IC50) of 26.8 ± 0.46 µM. In data set [3] (Homo sapiens, HepG2, 48 h), the half-inhibitory concentration (IC50) turned out to be 16.9 ± 0.18 µM. The IC50 in data set [4] (Homo sapiens, HeLa, 48 h) was found to be 15 ± 0.21 µM. In data set [5] (setting [6]), this compound had an IC50 of 44.6 ± 2.02 µM.

On to `N.N.[Cl][Pt][Cl]` [Cisplatin, cisplatin, reference compound], for which the concentration for half-maximal inhibition (IC50) in data set [1] worked out at 12.7 ± 0.33 µM; in data set [2], 8.75 ± 0.24 µM; in data set [3] it was 6.42 ± 0.18 µM; in data set [4], 1.94 ± 0.2 µM; in data set [5] (normal human liver cell HL-7702), 20.8 ± 0.83 µM.

On to `CC(C)c1ccc2c(c1)CC[C@H]1[C@](C)(C(=O)O)CCC[C@]21C` [DHA, dehydroabietic acid], for which the IC50 in data set [1] (Homo sapiens) is 46.7 ± 0.55 µM; in data set [2] (Homo sapiens), 88.64 ± 0.73 µM; in data set [3] (Homo sapiens, HepG2, 48 h) it was 80.4 ± 0.84 µM; in data set [4] (Homo sapiens, HeLa, 48 h), 37.4 ± 0.64 µM; in data set [5] (setting [6]), more than 100 µM.
